Earlier results on four compounds are cited in patent publication US20250275939A1, “CO-CRYSTALS” (UNIVERSITY OF IOWA RESEARCH FOUNDATION, priority 2024, published 2025).

Each structure is given as a SMILES string. Where two headings read alike, the source gives them in different places. Peptide text beside a SMILES is read from it.

For series [1] the following is noted: in vivo.
For series [2] the following is noted: in vivo. This is another data set of the same source.
The conditions of series [3]: humans, adults and children.
For series [4] the following is noted: humans, after a single oral dose.

Take `C1N2CN3CN1CN(C2)C3` [Methenamine]: in series [1], the “serum enzyme elevations / clinically apparent acute liver injury” value is reported as “has not been linked to serum enzyme elevations or to instances of clinically apparent acute liver injury”.

Take `Cc1nc(C)c(C)nc1C` [TMP, tetramethyl pyrazine]: the “penetration of the blood-brain barrier” value in series [2] was “can penetrate the blood-brain barrier”.

As for `COC(=O)[C@H](Cc1ccccc1)NC(=O)[C@@H](N)CC(=O)O` [aspartame, Aspartame] (H-Asp-Phe-OMe), the acceptable daily intake is 40 mg/kg bodyweight in series [3] (Europe) and 50 mg/kg bodyweight in series [3] (United States).

Turning to `O=c1c(O)c(-c2ccc(O)c(O)c2)oc2cc(O)cc(O)c12` [quercetin, Quercetin], in series [4], the oral bioavailability is around 2%.
